Measured values: PubChem BioAssay AID2060486 (Molecular Pharmacology Branch, DTP, NCI, 2025)

Test system: IGROV1 complex spheroids (HUVEC, MSC), viability % test/control
Assay: Anticancer human tumor IGROV1 cell line growth inhibition [GQUAD];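 also: spheroids exposed to compounds for 7 days before readout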;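 as to viability, T/C: 100% = DMSO vehicle control viability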
Conditions: for IC50: curve of first compound; for viability, T/C: stronger effect = lower value
Outline: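 Tumor cells were grown as complex spheroids with HUVEC endothelial cells and mesenchymal stem cells as stroma. G-quadruplex stabilizers were combined with targeted agents over half-log dilutions from near the clinical Cmax, or from 10 microM.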

[1] = second compound 0.0316 µM, first compound 0.0316 µM
[2] = second compound 0.0316 µM, first compound 0.1 µM
[3] = second compound 0.0316 µM, first compound 0.316 µM
[4] = second compound 0.0316 µM, first compound 1 µM
[5] = second compound 0.0316 µM, first compound 3.16 µM
[6] = second compound 0.0316 µM, first compound 10 µM
[7] = second compound 0.1 µM, first compound 0.0316 µM
[8] = second compound 0.1 µM, first compound 0.1 µM
[9] = second compound 0.1 µM, first compound 0.316 µM
[10] = second compound 0.1 µM, first compound 1 µM
[11] = second compound 0.1 µM, first compound 3.16 µM
[12] = second compound 0.1 µM, first compound 10 µM
[13] = second compound 0.316 µM, first compound 0.0316 µM
[14] = second compound 0.316 µM, first compound 0.1 µM
[15] = second compound 0.316 µM, first compound 0.316 µM
[16] = second compound 0.316 µM, first compound 1 µM
[17] = second compound 0.316 µM, first compound 3.16 µM
[18] = second compound 0.316 µM, first compound 10 µM
[19] = second compound 1 µM, first compound 0.0316 µM
[20] = second compound 1 µM, first compound 0.1 µM
[21] = second compound 1 µM, first compound 0.316 µM
[22] = second compound 1 µM, first compound 1 µM
[23] = second compound 1 µM, first compound 3.16 µM
[24] = second compound 1 µM, first compound 10 µM
[25] = second compound 3.16 µM, first compound 0.0316 µM
[26] = second compound 3.16 µM, first compound 0.1 µM
[27] = second compound 3.16 µM, first compound 0.316 µM
[28] = second compound 3.16 µM, first compound 1 µM
[29] = second compound 3.16 µM, first compound 3.16 µM
[30] = second compound 3.16 µM, first compound 10 µM
[31] = second compound 10 µM, first compound 0.0316 µM
[32] = second compound 10 µM, first compound 0.1 µM
[33] = second compound 10 µM, first compound 0.316 µM
[34] = second compound 10 µM, first compound 1 µM
[35] = second compound 10 µM, first compound 3.16 µM
[36] = second compound 10 µM, first compound 10 µM

`C=CC(=O)N1CCN(c2nc(=O)n(-c3c(C)ccnc3C(C)C)c3nc(-c4c(O)cccc4F)c(F)cc23)C(C)C1` (stereo not drawn) + Cc1[nH]c2ccc(F)cc2c1-c1nc2c3cccnc3c3ncccc3c2[nH]1 was tested, and the IC50 (second compound 0.0316 µM) was > 10000 nM, the IC50 (second compound 0.1 µM) was > 10000 nM and the IC50 (second compound 0.316 µM) was > 10000 nM. The IC50 (second compound 1 µM) was < 31.6 nM, the IC50 (second compound 3.16 µM) was < 31.6 nM and the IC50 (second compound 10 µM) was < 31.6 nM. It also gave a viability, T/C [1] of 104%, a viability, T/C [2] of 70.5% and a viability, T/C [3] of 103%. It also gave a viability, T/C [4] of 45.8%, a viability, T/C [5] of 94.8% and a viability, T/C [6] of 87.5%. It also gave a viability, T/C [7] of 90.2%, a viability, T/C [8] of 89.7% and a viability, T/C [9] of 80.6%. For the same molecule, the viability, T/C [10] was 75.1%, the viability, T/C [11] was 92.8% and the viability, T/C [12] was 99.2%. For the same molecule, the viability, T/C [13] was 70.5%, the viability, T/C [14] was 93.9% and the viability, T/C [15] was 76.2%. For the same molecule, the viability, T/C [16] was 78.9%, the viability, T/C [17] was 80% and the viability, T/C [18] was 56.8%. For the same molecule, the viability, T/C [19] was 3.43%, the viability, T/C [20] was 3.79% and the viability, T/C [21] was 6.26%. The viability, T/C [22] was 4.23%, the viability, T/C [23] was 4.27% and the viability, T/C [24] was 2.01%. It also gave a viability, T/C [25] of 3.63%, a viability, T/C [26] of 4.79% and a viability, T/C [27] of 4.74%. For the same molecule, the viability, T/C [28] was 4.03%, the viability, T/C [29] was 4.45% and the viability, T/C [30] was 2.13%. It also gave a viability, T/C [31] of 4.57%, a viability, T/C [32] of 4.39% and a viability, T/C [33] of 4.91%. For the same molecule, the viability, T/C [34] was 5.12%, the viability, T/C [35] was 4.17% and the viability, T/C [36] was 2.46%.
For `COc1cc(C2c3cc4c(cc3C(OC3OC5COC(C)OC5C(O)C3O)C3COC(=O)C23)OCO4)cc(OC)c1O` (stereo not drawn) + Cc1[nH]c2ccc(F)cc2c1-c1nc2c3cccnc3c3ncccc3c2[nH]1, the IC50 (second compound 0.0316 µM) was 99.2 nM, the IC50 (second compound 0.1 µM) was 110 nM and the IC50 (second compound 0.316 µM) was 75.3 nM. For the same molecule, the IC50 (second compound 1 µM) was < 31.6 nM, the IC50 (second compound 3.16 µM) was < 31.6 nM and the IC50 (second compound 10 µM) was < 31.6 nM. The viability, T/C [1] was 87.7%, the viability, T/C [2] was 49.2% and the viability, T/C [3] was 26.8%. The viability, T/C [4] was 9.94%, the viability, T/C [5] was 10.6% and the viability, T/C [6] was 5.84%. For the same molecule, the viability, T/C [7] was 89.3%, the viability, T/C [8] was 52.3% and the viability, T/C [9] was 25.4%. The viability, T/C [10] was 12%, the viability, T/C [11] was 9.69% and the viability, T/C [12] was 6.24%. For the same molecule, the viability, T/C [13] was 68.3%, the viability, T/C [14] was 44% and the viability, T/C [15] was 23.7%. It also gave a viability, T/C [16] of 11.6%, a viability, T/C [17] of 7.51% and a viability, T/C [18] of 4.85%. For the same molecule, the viability, T/C [19] was 4.67%, the viability, T/C [20] was 4.98% and the viability, T/C [21] was 4.59%. For the same molecule, the viability, T/C [22] was 5.09%, the viability, T/C [23] was 4.85% and the viability, T/C [24] was 3.15%. The viability, T/C [25] was 4.03%, the viability, T/C [26] was 5.21% and the viability, T/C [27] was 3.82%. The viability, T/C [28] was 5.26%, the viability, T/C [29] was 4.55% and the viability, T/C [30] was 3.18%. It also gave a viability, T/C [31] of 4.92%, a viability, T/C [32] of 4.45% and a viability, T/C [33] of 4.88%. It also gave a viability, T/C [34] of 4.78%, a viability, T/C [35] of 4.32% and a viability, T/C [36] of 4.34%.
In the case of `COc1cccc2c1C(=O)c1c(O)c3c(c(O)c1C2=O)CC(O)(C(=O)CO)CC3OC1CC(N)C(O)C(C)O1` (stereo not drawn) + Cc1[nH]c2ccc(F)cc2c1-c1nc2c3cccnc3c3ncccc3c2[nH]1, the IC50 (second compound 0.0316 µM) is reported as 58.1 nM, the IC50 (second compound 0.1 µM) is reported as 45.9 nM and the IC50 (second compound 0.316 µM) is reported as < 31.6 nM. The IC50 (second compound 1 µM) was < 31.6 nM, the IC50 (second compound 3.16 µM) was < 31.6 nM and the IC50 (second compound 10 µM) was < 31.6 nM. It also gave a viability, T/C [1] of 77.6%, a viability, T/C [2] of 24.5% and a viability, T/C [3] of 9.18%. The viability, T/C [4] was 3.35%, the viability, T/C [5] was 0.15% and the viability, T/C [6] was 0.53%. For the same molecule, the viability, T/C [7] was 62.3%, the viability, T/C [8] was 23.6% and the viability, T/C [9] was 10.5%. It also gave a viability, T/C [10] of 4.39%, a viability, T/C [11] of 0.11% and a viability, T/C [12] of 0.5%. The viability, T/C [13] was 34.7%, the viability, T/C [14] was 21.4% and the viability, T/C [15] was 7.11%. It also gave a viability, T/C [16] of 4.13%, a viability, T/C [17] of 0.18% and a viability, T/C [18] of 0.43%. The viability, T/C [19] was 4.23%, the viability, T/C [20] was 5.09% and the viability, T/C [21] was 3.51%. For the same molecule, the viability, T/C [22] was 1.63%, the viability, T/C [23] was 0.1% and the viability, T/C [24] was 0.52%. For the same molecule, the viability, T/C [25] was 3.48%, the viability, T/C [26] was 5.09% and the viability, T/C [27] was 3.34%. It also gave a viability, T/C [28] of 1.41%, a viability, T/C [29] of 0.08% and a viability, T/C [30] of 0.36%. The viability, T/C [31] was 4.02%, the viability, T/C [32] was 3.99% and the viability, T/C [33] was 2.84%. The viability, T/C [34] was 1.32%, the viability, T/C [35] was 0.18% and the viability, T/C [36] was 0.42%.
In the case of `Cn1ncnc1[C@H]1c2n[nH]c(=O)c3cc(F)cc(c23)N[C@@H]1c1ccc(F)cc1` + Cc1[nH]c2ccc(F)cc2c1-c1nc2c3cccnc3c3ncccc3c2[nH]1, the IC50 (second compound 0.0316 µM) is reported as 149 nM, the IC50 (second compound 0.1 µM) is reported as 73.5 nM and the IC50 (second compound 0.316 µM) is reported as 53 nM. The IC50 (second compound 1 µM) was < 0.999 nM, the IC50 (second compound 3.16 µM) was < 0.999 nM and the IC50 (second compound 10 µM) was < 0.999 nM. The viability, T/C (second compound 0.0316 µM, first compound 0.000999 µM) was 105%, the viability, T/C (second compound 0.0316 µM, first compound 0.00316 µM) was 79.6% and the viability, T/C (second compound 0.0316 µM, first compound 0.00999 µM) was 86.7%. For the same molecule, the viability, T/C [1] was 62.3%, the viability, T/C (second compound 0.0316 µM, first compound 0.0999 µM) was 67.7% and the viability, T/C [3] was 33.4%. It also gave a viability, T/C (second compound 0.1 µM, first compound 0.000999 µM) of 100%, a viability, T/C (second compound 0.1 µM, first compound 0.00316 µM) of 80.1% and a viability, T/C (second compound 0.1 µM, first compound 0.00999 µM) of 83%. For the same molecule, the viability, T/C [7] was 48.9%, the viability, T/C (second compound 0.1 µM, first compound 0.0999 µM) was 53.1% and the viability, T/C [9] was 32%. It also gave a viability, T/C (second compound 0.316 µM, first compound 0.000999 µM) of 96.4%, a viability, T/C (second compound 0.316 µM, first compound 0.00316 µM) of 81.9% and a viability, T/C (second compound 0.316 µM, first compound 0.00999 µM) of 68.9%. The viability, T/C [13] was 54.8%, the viability, T/C (second compound 0.316 µM, first compound 0.0999 µM) was 46.5% and the viability, T/C [15] was 27.5%. The viability, T/C (second compound 1 µM, first compound 0.000999 µM) was 5.11%, the viability, T/C (second compound 1 µM, first compound 0.00316 µM) was 4.97% and the viability, T/C (second compound 1 µM, first compound 0.00999 µM) was 5.21%. It also gave a viability, T/C [19] of 4.33%, a viability, T/C (second compound 1 µM, first compound 0.0999 µM) of 4.79% and a viability, T/C [21] of 4.17%. It also gave a viability, T/C (second compound 3.16 µM, first compound 0.000999 µM) of 4.43%, a viability, T/C (second compound 3.16 µM, first compound 0.00316 µM) of 4.31% and a viability, T/C (second compound 3.16 µM, first compound 0.00999 µM) of 4.37%. For the same molecule, the viability, T/C [25] was 4.14%, the viability, T/C (second compound 3.16 µM, first compound 0.0999 µM) was 4.64% and the viability, T/C [27] was 3.96%. The viability, T/C (second compound 10 µM, first compound 0.000999 µM) was 4.02%, the viability, T/C (second compound 10 µM, first compound 0.00316 µM) was 3.63% and the viability, T/C (second compound 10 µM, first compound 0.00999 µM) was 5.14%. For the same molecule, the viability, T/C [31] was 4.68%, the viability, T/C (second compound 10 µM, first compound 0.0999 µM) was 4.53% and the viability, T/C [33] was 4.33%.
